From paper PMC8880564, “Design, Synthesis, and Biological Evaluation of a Novel VEGFR-2 Inhibitor Based on a 1,2,5-Oxadiazole-2-Oxide Scaffold with MAPK Signaling Pathway Inhibition” (Pharmaceuticals, 2022)

Assays:
Test in all cases: NCI-60 one-dose SRB screening
Format in all cases: cell-based
KM12 = settings: Homo sapiens, KM12, Colon Cancer, 10 µM one dose, 48 h, read-out: growth percentage
HS 578T = settings: Homo sapiens, Breast Cancer, 10 µM one dose, 48 h, read-out: growth percentage
NCI-H23 = settings: Homo sapiens, NCI-H23, Non-Small Cell Lung Cancer, 10 µM one dose, 48 h, read-out: growth percentage
CAKI-1 = settings: Homo sapiens, CAKI-1, Renal Cancer, 10 µM one dose, 48 h, read-out: growth percentage
SF-268 = settings: Homo sapiens, SF-268, CNS Cancer, 10 µM one dose, 48 h, read-out: growth percentage
NCI-H226 = settings: Homo sapiens, NCI-H226, Non-Small Cell Lung Cancer, 10 µM one dose, 48 h, read-out: growth percentage
UO-31 = settings: Homo sapiens, UO-31, Renal Cancer, 10 µM one dose, 48 h, read-out: growth percentage
EKVX = settings: Homo sapiens, Non-Small Cell Lung Cancer, 10 µM one dose, 48 h, read-out: growth percentage
UACC-62 = settings: Homo sapiens, UACC-62, Melanoma, 10 µM one dose, 48 h, read-out: growth percentage
HCC-2998 = settings: Homo sapiens, HCC-2998, Colon Cancer, 10 µM one dose, 48 h, read-out: growth percentage
COLO 205 = settings: Homo sapiens, COLO 205, Colon Cancer, 10 µM one dose, 48 h, read-out: growth percentage
SR = settings: Homo sapiens, Leukemia, 10 µM one dose, 48 h, read-out: growth percentage
RPMI-8226 = settings: Homo sapiens, RPMI-8226, Leukemia, 10 µM one dose, 48 h, read-out: growth percentage
CCRF-CEM = settings: Homo sapiens, Leukemia, 10 µM one dose, 48 h, read-out: growth percentage
NCI-H460 = settings: Homo sapiens, NCI-H460, Non-Small Cell Lung Cancer, 10 µM one dose, 48 h, read-out: growth percentage
DU-145 = settings: Homo sapiens, DU-145, Prostate Cancer, 10 µM one dose, 48 h, read-out: growth percentage
K-562 = settings: Homo sapiens, K562, K-562, Leukemia, 10 µM one dose, 48 h, read-out: growth percentage
MDA-MB-231/ATCC = settings: Homo sapiens, Breast Cancer, 10 µM one dose, 48 h, read-out: growth percentage
OVCAR-3 = settings: Homo sapiens, OVCAR-3, Ovarian Cancer, 10 µM one dose, 48 h, read-out: growth percentage
SF-539 = settings: Homo sapiens, SF-539, CNS Cancer, 10 µM one dose, 48 h, read-out: growth percentage
U251 = settings: Homo sapiens, U-251, U251, CNS Cancer, 10 µM one dose, 48 h, read-out: growth percentage
RXF 393 = settings: Homo sapiens, RXF 393, Renal Cancer, 10 µM one dose, 48 h, read-out: growth percentage

| SMILES | activity at 10 µM (KM12) [%] | activity at 10 µM (HS 578T) [%] | activity at 10 µM (NCI-H23) [%] | activity at 10 µM (CAKI-1) [%] | activity at 10 µM (SF-268) [%] | activity at 10 µM (NCI-H226) [%] | activity at 10 µM (UO-31) [%] | activity at 10 µM (EKVX) [%] | activity at 10 µM (UACC-62) [%] | activity at 10 µM (HCC-2998) [%] | activity at 10 µM (COLO 205) [%] | activity at 10 µM (SR) [%] | activity at 10 µM (NCI-H460) [%] | activity at 10 µM (DU-145) [%] | activity at 10 µM (K-562) [%] | activity at 10 µM (MDA-MB-231/ATCC) [%] | activity at 10 µM (OVCAR-3) [%] | activity at 10 µM (SF-539) [%] | activity at 10 µM (U251) [%] | activity at 10 µM (RXF 393) [%] | further results |
| --- | --- | --- | --- | --- | --- | --- | --- | --- | --- | --- | --- | --- | --- | --- | --- | --- | --- | --- | --- | --- | --- |
| [O-][n+]1onc(-c2ccccc2)c1COc1ccc(Nc2ncnc3c2cnn3-c2ccccc2)cc1 [6a, 4-phenyl-3-((4-((1-phenyl-1H-pyrazolo[3,4-d]pyrimidin-4-yl)amino)phenoxy)methyl)-1,2,5-oxadiazole 2-oxide] | 103 | 98.7 | 105 | 99.4 | 103 | 111 | 94.2 | 98.9 | 103 | 106 | 104 | 85.2 | 73.6 | 107 | 88 | 97.5 | 95.9 | 95.7 | 107 | 98.4 | activity at 10 µM (RPMI-8226): 104%; activity at 10 µM (CCRF-CEM): 91% |
| Cc1nc(Nc2ccc(OCc3c(-c4ccccc4)no[n+]3[O-])cc2)c2cnn(-c3ccccc3)c2n1 [6b, 3-((4-((6-methyl-1-phenyl-1H-pyrazolo[3,4-d]pyrimidin-4-yl)amino)phenoxy)methyl)-4-phenyl-1,2,5-oxadiazole 2-oxide] | 102 | 110 | 102 | 87.6 | 103 | 94.7 | 95 | 93.1 | 88.4 | 108 | 114 | 89.1 | 111 | 105 | 111 | 106 | 109 | 102 | 104 | 111 | activity at 10 µM (RPMI-8226): 114%; activity at 10 µM (CCRF-CEM): 102% |
| Cc1nn(-c2ccccc2)c2ncnc(Nc3ccc(OCc4c(-c5ccccc5)no[n+]4[O-])cc3)c12 [6c, 3-((4-((3-methyl-1-phenyl-1H-pyrazolo[3,4-d]pyrimidin-4-yl)amino)phenoxy)methyl)-4-phenyl-1,2,5-oxadiazole 2-oxide] | 99.8 | 97.5 | 98.1 | 86 | 96.5 | 97.3 | 77 | 90.4 | 81.4 | 106 | 116 | 73.9 | 109 | 106 | 90.2 | 95.7 | 105 | 96.2 | 97.2 | 112 | activity at 10 µM (RPMI-8226): 94%; activity at 10 µM (CCRF-CEM): 97.4% |
| Cc1nc(Nc2ccc(OCc3c(-c4ccccc4)no[n+]3[O-])cc2)c2c(C)nn(-c3ccccc3)c2n1 [6d, 3-((4-((3,6-dimethyl-1-phenyl-1H-pyrazolo[3,4-d]pyrimidin-4-yl)amino)phenoxy)methyl)-4-phenyl-1,2,5-oxadiazole 2-oxide] | 104 | 102 | 102 | 101 | 106 | 101 | 88.5 | 102 | 89.6 | 107 | 107 | 102 | 112 | 112 | 99.3 | 101 | 114 | 99.8 | 106 | 119 | activity at 10 µM (RPMI-8226): 106%; activity at 10 µM (CCRF-CEM): 113% |
| [O-][n+]1onc(-c2ccccc2)c1COc1ccc(Nc2ncnc3c2cnn3-c2ccc(Br)cc2)cc1 [6e, 3-((4-((1-(4-bromophenyl)-1H-pyrazolo[3,4-d]pyrimidin-4-yl)amino)phenoxy)methyl)-4-phenyl-1,2,5-oxadiazole 2-oxide] | 103 | 110 | 101 | 82.1 | 101 | 104 | 84.7 | 96.3 | 89.1 | 106 | 105 | 98 | 111 | 107 | 98.5 | 108 | 117 | 98.4 | 102 | 119 | activity at 10 µM (RPMI-8226): 111%; activity at 10 µM (CCRF-CEM): 108% |
| Cc1nc(Nc2ccc(OCc3c(-c4ccccc4)no[n+]3[O-])cc2)c2cnn(-c3ccc(Br)cc3)c2n1 [6f, 3-((4-((1-(4-bromophenyl)-6-methyl-1H-pyrazolo[3,4-d]pyrimidin-4-yl)amino)phenoxy)methyl)-4-phenyl-1,2,5-oxadiazole 2-oxide] | 101 | 93.6 | 95.8 | 81.9 | 99.9 | 108 | 82.7 | 91.4 | 84.8 | 104 | 119 | 87.1 | 103 | 104 | 91.1 | 106 | 114 | 94.2 | 99 | 121 | activity at 10 µM (RPMI-8226): 115%; activity at 10 µM (CCRF-CEM): 104% |
| Cc1nn(-c2ccccc2)c2nc(CCl)[nH]c(=O)c12 [13b] | 53.3 | 120 | 98.8 | 99.6 | 106 | 111 | -86.3 | 99.2 | 97.9 | 108 | 110 | 39.8 | 102 | 83.6 | 19.2 | 88.4 | 97.4 | 36.9 | 93.9 | 99.2 | – |
| Cc1nn(-c2ccc(Br)cc2)c2nc(CCl)[nH]c(=O)c12 [13c] | 83.6 | 108 | 103 | 96.3 | 99.4 | 102 | -90.1 | 99.5 | 101 | 105 | 103 | – | 109 | 110 | 75.6 | 94.1 | 97.4 | 77 | 99.7 | 119 | activity at 10 µM (RPMI-8226): -53.9%; activity at 10 µM (CCRF-CEM): 83.7% |
